Molecules are shown by their SMILES.

The target in the first assay is T1, P2X7 receptor (Homo sapiens, UniProt Q99572).
T1 construct: host or cells: SH-SY5Y
T1 sequence (Q99572 1-595): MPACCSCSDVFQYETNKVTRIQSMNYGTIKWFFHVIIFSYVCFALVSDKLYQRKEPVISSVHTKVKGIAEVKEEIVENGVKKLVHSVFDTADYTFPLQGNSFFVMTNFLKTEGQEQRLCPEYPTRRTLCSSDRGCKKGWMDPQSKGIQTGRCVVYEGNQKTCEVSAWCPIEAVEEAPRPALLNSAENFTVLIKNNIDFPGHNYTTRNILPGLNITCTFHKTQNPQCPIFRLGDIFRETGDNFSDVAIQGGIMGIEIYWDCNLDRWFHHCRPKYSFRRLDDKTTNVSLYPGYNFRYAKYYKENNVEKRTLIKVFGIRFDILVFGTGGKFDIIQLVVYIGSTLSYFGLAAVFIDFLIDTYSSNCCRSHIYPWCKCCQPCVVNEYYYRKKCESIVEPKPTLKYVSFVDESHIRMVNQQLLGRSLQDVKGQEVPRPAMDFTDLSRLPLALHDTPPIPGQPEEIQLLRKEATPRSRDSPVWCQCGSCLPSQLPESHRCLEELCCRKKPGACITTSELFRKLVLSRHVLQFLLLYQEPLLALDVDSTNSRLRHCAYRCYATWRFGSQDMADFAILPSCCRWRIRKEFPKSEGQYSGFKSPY
As to the kind of experiment: P2X7 calcium mobilization assay, high throughput, antagonist activity (Example 4A). The class given is cell-based. The note with it: 50% decrease in the fluorescence response of cells exposed to 80 μM 2′(3′)-O-(4-benzoyl-benzoyl)adenosine 5′-triphosphate; Example 4A; read-out: IC50. A digest of the protocol: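 Cells plated at 100,000/well the day before were dye-loaded for 1 h, then incubated 1 h at room temperature with test compound before agonist-triggered calcium mobilization was read on FLIPR Tetra. Maximum RFU was corrected by subtracting the no-agonist control and related to the agonist-control response.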
In the case of `CN(C)CCN(C(=O)Cc1cn2c(C(=O)NC[C@@H]3CC[C@@H]4C[C@H]3C4(C)C)cccc2n1)C1CCNCC1(C)C` (stereo partly drawn) [Compound 574, 2-(2-{[2-(dimethylamino)ethyl] (3,3-dimethylpiperidin-4-yl)amino}-2-oxoethyl)-N-{[(1R,2R,5R)-6,6-dimethylbicyclo [3.1.1]hept-2-yl]methyl}imidazo[1,2-a]pyridine-5-carboxamide], the IC50 was less than 2000 nM.

As to `CC(C)(C)C(O)CNC(=O)c1cn2c(C(=O)NC[C@@H]3CC[C@H]4C[C@@H]3C4(C)C)cccc2n1` (stereo partly drawn) [Compound 528, 5-N-{[(1S,2R,5S)-6,6-dimethylbicyclo[3.1.1]hept-2-yl]methyl}-2-N-(2-hydroxy-3,3-dimethylbutyl)imidazo [1,2-a]pyridine-2,5-dicarboxamide], the IC50 is less than 2000 nM.

As to `CCOC(=O)C(=O)N(CC)Cc1cn2c(C(=O)NCC34CC5CC(CC(C5)C3)C4)cccc2n1` [Compound 541, ethyl [({5-[(adamantan-1-ylmethyl)carbamoyl]imidazo[1,2-a]pyridin-2-yl}methyl)(ethyl)amino] (oxo)acetate], the half-maximal inhibitory concentration (IC50) is less than 2000 nM.

Staying with this assay, now noted: 50% decrease in the fluorescence response of cells exposed to 80 μM of 2′(3′)-O-(4-benzoyl-benzoyl)adenosine 5′-triphosphate; Example 4A; read-out: IC50.
With `O=C(NCC12CC3CC(CC(C3)C1)C2)c1cccc2nc(C(Cc3ccc(Cl)cc3)C(=O)O)cn12` (centres unmarked) [Compound 804, 2-{5-[(adamantan-1-ylmethyl)carbamoyl]imidazo[1,2-a]pyridin-2-yl}-3-(4-chlorophenyl) propanoic acid], the IC50 was less than 2000 nM.

For `CC(C)N[C@@H]1CCCN(C(=O)Cc2cn3c(C(=O)NCC45CC6CC(CC(C6)C4)C5)cccc3n2)C1` [Compound 742, N-(adamantan-1-ylmethyl)-2-{2-[(3R)-3-(isopropylamino)piperidin-1-yl]-2-oxoethyl}imidazo[1,2-a]pyridine-5-carboxamide], the IC50 is less than 2000 nM.

Take `NC1CCN(C(=O)c2cn3c(C(=O)NCC45CC6CC(CC(C6)C4)C5)cccc3n2)C1` (centres unmarked) [Compound 625, N-(adamantan-1-ylmethyl)-2-[(3-aminopyrrolidin-1-yl)carbonyl] imidazo[1,2-a]pyridine-5-carboxamide]: the IC50 is less than 2000 nM.

On to `O=C(NCC12CC3CC(CC(C3)C1)C2)c1cccc2nc(C(=O)N3CCC(N4CCCC4)C3)cn12` (centres unmarked) [Compound 719, N-(adamantan-1-ylmethyl)-2-(1,3′-bipyrrolidin-1′-ylcarbonyl)imidazo [1,2-a]pyridine-5-carboxamide], for which the IC50 is less than 2000 nM.

As for `N[C@@H]1CCN(Cc2cn3c(C(=O)NCC(CC4CC4)c4ccccc4)cccc3n2)C1` (some centres unmarked) [Compound 782, 2-[(3-aminopyrrolidin-1-yl)methyl]-N-(3-cyclopropyl-2-phenylpropyl) imidazo [1,2-a]pyridine-5-carboxamide], the IC50 was less than 2000 nM.

In the case of `CN(C)CCCN(C)C(=O)c1cn2c(C(=O)NCC34CC5CC(CC(C5)C3)C4)cccc2n1` [Compound 670, 5-N-(adamantan-1-ylmethyl)-2-N-[3-(dimethylamino)propyl]-2-N-methylimidazo[1,2-a]pyridine-2,5-dicarboxamide], the half-maximal inhibitory concentration (IC50) is less than 2000 nM.

Staying with this assay, now noted: 50% decrease in the fluorescence response of cells exposed to 80 μM of 2′(3′)-O-(4-benzoyl-benzoyl)adenosine 5′-triphosphate; determined as in Example 4A; read-out: IC50.
For `CC(C)CC(CNC(=O)c1cccc2nc(CC(=O)N[C@@H]3CCNC3)cn12)c1ccc(Cl)cc1` (stereo partly drawn) [Compound 960, N-[2-(4-chlorophenyl)-4-methylpentyl]-2-{2-oxo-2-[(3R)-pyrrolidin-3-ylamino]ethyl} imidazo[1,2-a] pyridine-5-carboxamide], the IC50 was less than 2000 nM.

Take `CCOC(=O)C(Cc1cccc(Cl)c1)c1cn2c(C(=O)NCC34CC5CC(CC(C5)C3)C4)cccc2n1` (centres unmarked) [Compound 841, ethyl 2-{5-[(adamantan-1-ylmethyl)carbamoyl]imidazo[1,2-a]pyridin-2-yl}-3-(3-chlorophenyl) propanoate]: the IC50 is less than 2000 nM.

For the compound `CN(C)C1CCCN(C(=O)Cc2cn3c(C(=O)NCC4(c5ccc(Cl)cc5)CCOCC4)cccc3n2)C1` (centres unmarked) [Compound 899, N-{[4-(4-chlorophenyl)tetrahydro-2H-pyran-4-yl]methyl}-2-{2-[3-(dimethylamino)piperidin-1-yl]-2-oxoethyl} imidazo[1,2-a] pyridine-5-carboxamide], the 50% inhibitory concentration (IC50) was less than 2000 nM.

Take `CC(C)CC(CNC(=O)c1cccc2nc(CC(Cc3ccccc3)C(=O)O)cn12)c1ccccc1` (centres unmarked) [Compound 1004, 2-benzyl-3-{5-[(4-methyl-2-phenylpentyl)carbamoyl]imidazo[1,2-a]pyridin-2-yl} propanoic acid]: the IC50 was less than 2000 nM.

Take `O=C(O)Cc1nnn(Cc2cn3c(C(=O)NCC45CC6CC(CC(C6)C4)C5)cccc3n2)n1` [Compound 903, [2-({5-[(adamantan-1-ylmethyl)carbamoyl]imidazo[1,2-a]pyridin-2-yl}methyl)-2H-tetrazol-5-yl]acetic acid]: the half-maximal inhibitory concentration (IC50) is less than 2000 nM.

Take `CC(C)(C)CCNC(=O)Cc1cn2c(C(=O)NCC3(c4ccc(Cl)cc4)CCOCC3)cccc2n1` [Compound 882, N-{[4-(4-chlorophenyl)tetrahydro-2H-pyran-4-yl]methyl}-2-{2-[(3,3-dimethylbutyl)amino]-2-oxoethyl}imidazo[1,2-a]pyridine-5-carboxamide]: the IC50 was less than 2000 nM.

For `CC(C)CC(CNC(=O)c1cccc2nc(C(Cc3ccccc3)C(=O)O)cn12)c1ccc(Cl)cc1` (centres unmarked) [Compound 939, 2-(5-{[2-(4-chlorophenyl)-4-methylpentyl]carbamoyl}imidazo[1,2-a]pyridin-2-yl)-3-phenylpropanoic acid], the IC50 is less than 2000 nM.

Still in this assay, the particulars now being: SH-SY5Y cells; 50% decrease in fluorescence response to 80 μM BzATP; read-out: IC50.
`CC(O)CNC(=O)Cc1cn2c(C(=O)NCC34CC5CC(CC(C5)C3)C4)cccc2n1` (centres unmarked) [Compound 33, N-(adamantan-1-ylmethyl)-2-{2-[(2-hydroxypropyl)amino]-2-oxoethyl}imidazo[1,2-a]pyridine-5-carboxamide]: the half-inhibitory concentration (IC50) was less than 2000 nM.

On to `CC(NC(=O)Cc1cn2c(C(=O)NCC34CC5CC(CC(C5)C3)C4)cccc2n1)C(N)=O` (centres unmarked) [Compound 25, N-(adamantan-1-ylmethyl)-2-{2-[(2-amino-1-methyl-2-oxoethyl)amino]-2-oxoethyl}imidazo[1,2-a]pyridine-5-carboxamide], for which the concentration for half-maximal inhibition (IC50) is less than 2000 nM.

The same assay, now with this note: fluorescence response of cells exposed to 80 μM 2′(3′)-O-(4-benzoyl-benzoyl)adenosine 5′-triphosphate; Example 4A; read-out: IC50.
As to `CC(C)[C@H]1CN(C(=O)c2cn3c(C(=O)NC[C@@H]4CC[C@H]5C[C@@H]4C5(C)C)cccc3n2)CCN1` [Compound 308], the concentration for half-maximal inhibition (IC50) was less than 2000 nM.

Regarding `O=C(O)c1cccc(-c2cn3c(C(=O)NCC45CC6CC(CC(C6)C4)C5)cccc3n2)c1` [Compound 345, 3-{5-[(adamantan-1-ylmethyl)carbamoyl]imidazo[1,2-a]pyridin-2-yl} benzoic acid], the IC50 was less than 2000 nM.

Consider `NCCS(=O)(=O)Cc1cn2c(C(=O)NCC34CC5CC(CC(C5)C3)C4)cccc2n1` [Compound 283, N-(adamantan-1-ylmethyl)-2-{[(2-aminoethyl)sulfonyl]methyl}imidazo [1,2-a]pyridine-5-carboxamide], for which the half-inhibitory concentration (IC50) was less than 2000 nM.

As for `N#CCCc1cn2c(C(=O)NCC34CC5CC(CC(C5)C3)C4)cccc2n1` [Compound 274, N-(adamantan-1-ylmethyl)-2-(2-cyanoethyl)imidazo[1,2-a]pyridine-5-carboxamide], the IC50 was less than 2000 nM.

As to `COCC1CCN(C(=O)c2cn3c(NC(=O)CC45CC6CC(CC(C6)C4)C5)cccc3n2)CC1` [Compound 396, 2-adamantan-1-yl-N-(2-{[4-(methoxymethyl)piperidin-1-yl]carbonyl}imidazo[1,2-a]pyridin-5-yl)acetamide], the half-inhibitory concentration (IC50) was less than 2000 nM.

These data come from patent US8431593B2, “Heteroaryl amide derivatives” (H. Lundbeck A/S, priority 2006, dated 2013).
